Tests used:
Set-up in all cases: scale not given: the % may be the effect or the level left
[1] = target: Activin receptor type-1-like (Homo sapiens) (UniProt P37023); assay: Inhibition of DNA-tagged human ACVRL1 assessed as percent of control at 50000 nM by qPCR analysis relative to control
[2] = target: Ephrin type-A receptor 4 (Homo sapiens) (UniProt P54764); assay: Inhibition of DNA-tagged human EPHA4 assessed as percent of control at 50000 nM by qPCR analysis relative to control
[3] = test system: Epidermal growth factor receptor (Homo sapiens), P00533 [L858R]; assay: Inhibition of DNA-tagged human EGFR L858R mutant assessed as percent of control at 50000 nM by qPCR analysis relative to control
[4] = target: Dual specificity mitogen-activated protein kinase kinase 1 (Homo sapiens) (UniProt Q02750); assay: Inhibition of DNA-tagged human MEK1 assessed as percent of control at 50000 nM by qPCR analysis relative to control
Sequence of Dual specificity mitogen-activated protein kinase kinase 1 (Homo sapiens) (Q02750 whole entry): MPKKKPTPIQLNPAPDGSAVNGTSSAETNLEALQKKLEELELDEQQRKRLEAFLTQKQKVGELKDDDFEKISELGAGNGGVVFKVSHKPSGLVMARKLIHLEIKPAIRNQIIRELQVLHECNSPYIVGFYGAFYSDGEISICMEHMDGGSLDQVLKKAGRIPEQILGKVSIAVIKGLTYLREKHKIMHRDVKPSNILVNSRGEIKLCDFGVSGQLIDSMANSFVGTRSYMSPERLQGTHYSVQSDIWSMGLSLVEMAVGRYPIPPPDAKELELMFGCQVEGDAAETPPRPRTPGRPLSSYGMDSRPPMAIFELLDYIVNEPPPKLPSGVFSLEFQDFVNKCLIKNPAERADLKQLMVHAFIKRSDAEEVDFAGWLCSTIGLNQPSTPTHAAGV

[5] = target: Serine/threonine-protein kinase Nek1 (Homo sapiens) (UniProt Q96PY6); assay: Inhibition of DNA-tagged human NEK1 assessed as percent of control at 50000 nM by qPCR analysis relative to control
[6] = target: Protein-tyrosine kinase 6 (Homo sapiens) (UniProt Q13882); assay: Inhibition of DNA-tagged human BRK assessed as percent of control at 50000 nM by qPCR analysis relative to control
Sequence of Protein-tyrosine kinase 6 (Homo sapiens) (Q13882 whole entry, looked up): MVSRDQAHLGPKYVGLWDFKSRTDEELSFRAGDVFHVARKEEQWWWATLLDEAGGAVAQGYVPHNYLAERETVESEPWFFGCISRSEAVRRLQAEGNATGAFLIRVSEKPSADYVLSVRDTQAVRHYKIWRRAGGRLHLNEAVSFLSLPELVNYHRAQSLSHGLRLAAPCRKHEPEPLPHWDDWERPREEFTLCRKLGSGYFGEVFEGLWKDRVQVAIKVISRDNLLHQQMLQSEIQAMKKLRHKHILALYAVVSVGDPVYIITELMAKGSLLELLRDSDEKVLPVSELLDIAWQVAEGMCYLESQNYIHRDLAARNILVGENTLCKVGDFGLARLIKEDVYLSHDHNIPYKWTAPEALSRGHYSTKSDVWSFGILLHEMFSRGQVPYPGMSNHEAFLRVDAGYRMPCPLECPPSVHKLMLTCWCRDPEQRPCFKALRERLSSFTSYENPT

[7] = target: Serine/threonine-protein kinase DCLK3 (Homo sapiens) (UniProt Q9C098); assay: Inhibition of DNA-tagged human DCAMKL3 assessed as percent of control at 50000 nM by qPCR analysis relative to control
Sequence of Serine/threonine-protein kinase DCLK3 (Homo sapiens) (Q9C098 whole entry): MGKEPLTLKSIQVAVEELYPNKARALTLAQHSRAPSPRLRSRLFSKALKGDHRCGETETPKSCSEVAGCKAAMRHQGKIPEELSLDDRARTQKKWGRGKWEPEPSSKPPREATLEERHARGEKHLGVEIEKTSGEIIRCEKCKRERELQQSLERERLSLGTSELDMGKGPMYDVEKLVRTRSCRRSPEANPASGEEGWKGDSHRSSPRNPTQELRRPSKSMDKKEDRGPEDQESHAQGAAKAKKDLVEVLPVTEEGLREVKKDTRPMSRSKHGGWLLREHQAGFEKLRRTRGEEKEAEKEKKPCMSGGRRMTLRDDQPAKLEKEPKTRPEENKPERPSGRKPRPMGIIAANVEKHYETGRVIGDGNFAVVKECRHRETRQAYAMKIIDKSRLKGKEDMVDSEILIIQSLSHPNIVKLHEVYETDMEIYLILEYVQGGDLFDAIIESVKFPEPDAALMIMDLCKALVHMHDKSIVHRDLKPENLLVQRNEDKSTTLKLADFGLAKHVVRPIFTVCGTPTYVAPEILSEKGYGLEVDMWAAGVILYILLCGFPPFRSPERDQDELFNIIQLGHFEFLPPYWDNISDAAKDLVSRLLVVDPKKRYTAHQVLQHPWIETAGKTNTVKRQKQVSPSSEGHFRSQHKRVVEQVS

[8] = target: Cyclin-G-associated kinase (Homo sapiens) (UniProt O14976); assay: Inhibition of DNA-tagged human GAK assessed as percent of control at 50000 nM by qPCR analysis relative to control
[9] = target: Receptor-interacting serine/threonine-protein kinase 1 (Homo sapiens) (UniProt Q13546); assay: Inhibition of DNA-tagged human RIPK1 assessed as percent of control at 50000 nM by qPCR analysis relative to control
[10] = target: Tyrosine-protein kinase ABL1 (Homo sapiens) (UniProt P00519); assay: Inhibition of DNA-tagged non-phosphorylated human ABL1 assessed as percent of control at 50000 nM by qPCR analysis relative to control
[11] = target: Cyclin-dependent kinase-like 1 (Homo sapiens) (UniProt Q00532); assay: Inhibition of DNA-tagged human CDKL1 assessed as percent of control at 50000 nM by qPCR analysis relative to control
Sequence of Cyclin-dependent kinase-like 1 (Homo sapiens) (Q00532 whole entry): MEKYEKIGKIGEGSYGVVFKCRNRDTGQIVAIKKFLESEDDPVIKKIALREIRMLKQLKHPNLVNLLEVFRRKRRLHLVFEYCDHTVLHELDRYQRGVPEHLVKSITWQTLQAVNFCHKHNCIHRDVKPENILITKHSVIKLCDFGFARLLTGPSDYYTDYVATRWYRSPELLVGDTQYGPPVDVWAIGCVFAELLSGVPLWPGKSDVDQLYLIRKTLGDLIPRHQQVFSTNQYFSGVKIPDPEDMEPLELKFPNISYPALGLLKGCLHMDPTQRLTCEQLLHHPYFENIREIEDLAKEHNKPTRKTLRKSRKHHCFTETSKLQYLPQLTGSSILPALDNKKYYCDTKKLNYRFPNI

[12] = test system: Epidermal growth factor receptor (Homo sapiens), P00533 [L858R,T790M]; assay: Inhibition of DNA-tagged human EGFR L858R/T790M double mutant assessed as percent of control at 50000 nM by qPCR analysis relative to control
[13] = target: G protein-coupled receptor kinase 4 (Homo sapiens) (UniProt P32298); assay: Inhibition of DNA-tagged human GRK4 assessed as percent of control at 50000 nM by qPCR analysis relative to control
[14] = target: Insulin-like growth factor 1 receptor (Homo sapiens) (UniProt P08069); assay: Inhibition of DNA-tagged human IGF1R assessed as percent of control at 50000 nM by qPCR analysis relative to control
Sequence of Insulin-like growth factor 1 receptor (Homo sapiens) (P08069 31-736 limits assumed): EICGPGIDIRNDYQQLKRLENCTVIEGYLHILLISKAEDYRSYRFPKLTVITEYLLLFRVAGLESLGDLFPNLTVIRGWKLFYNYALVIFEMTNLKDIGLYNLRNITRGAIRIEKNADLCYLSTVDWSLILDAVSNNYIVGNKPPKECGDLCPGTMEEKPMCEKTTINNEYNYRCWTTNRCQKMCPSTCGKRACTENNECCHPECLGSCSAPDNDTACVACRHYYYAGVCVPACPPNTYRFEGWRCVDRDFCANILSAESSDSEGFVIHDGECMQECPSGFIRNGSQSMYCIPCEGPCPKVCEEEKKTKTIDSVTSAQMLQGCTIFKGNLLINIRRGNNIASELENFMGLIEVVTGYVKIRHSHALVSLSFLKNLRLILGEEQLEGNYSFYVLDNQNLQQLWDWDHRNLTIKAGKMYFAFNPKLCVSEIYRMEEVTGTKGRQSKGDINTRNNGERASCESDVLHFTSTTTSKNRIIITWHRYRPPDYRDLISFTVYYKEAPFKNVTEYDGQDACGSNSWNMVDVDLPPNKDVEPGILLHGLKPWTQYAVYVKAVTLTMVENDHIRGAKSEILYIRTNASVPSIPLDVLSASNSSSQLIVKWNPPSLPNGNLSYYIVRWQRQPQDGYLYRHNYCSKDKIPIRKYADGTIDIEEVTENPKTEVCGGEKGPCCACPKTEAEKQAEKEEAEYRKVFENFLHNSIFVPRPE
Sequence of Insulin-like growth factor 1 receptor (Homo sapiens) (P08069 741-1367 limits assumed): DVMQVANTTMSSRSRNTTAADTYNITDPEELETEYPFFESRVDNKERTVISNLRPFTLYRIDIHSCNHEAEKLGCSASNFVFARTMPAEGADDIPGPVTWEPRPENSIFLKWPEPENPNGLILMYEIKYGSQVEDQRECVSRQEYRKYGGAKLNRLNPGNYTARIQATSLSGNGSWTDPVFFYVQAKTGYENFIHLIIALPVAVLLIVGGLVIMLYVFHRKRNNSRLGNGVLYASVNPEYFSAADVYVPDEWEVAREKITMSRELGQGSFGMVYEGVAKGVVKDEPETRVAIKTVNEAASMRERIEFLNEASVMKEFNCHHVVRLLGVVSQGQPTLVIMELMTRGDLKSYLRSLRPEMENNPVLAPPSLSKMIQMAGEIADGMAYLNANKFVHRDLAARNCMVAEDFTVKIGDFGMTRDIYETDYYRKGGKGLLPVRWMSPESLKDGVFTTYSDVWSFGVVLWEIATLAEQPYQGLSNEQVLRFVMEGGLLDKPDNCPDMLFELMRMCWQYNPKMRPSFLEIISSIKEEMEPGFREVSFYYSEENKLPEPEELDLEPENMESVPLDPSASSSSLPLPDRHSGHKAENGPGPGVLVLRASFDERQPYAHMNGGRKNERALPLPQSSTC

[15] = test system: Epidermal growth factor receptor (Homo sapiens), P00533 [G719C]; assay: Inhibition of DNA-tagged human EGFR G719C mutant assessed as percent of control at 50000 nM by qPCR analysis relative to control
[16] = target: Ephrin type-A receptor 6 (Homo sapiens) (UniProt Q9UF33); assay: Inhibition of DNA-tagged human EPHA6 assessed as percent of control at 50000 nM by qPCR analysis relative to control
[17] = target: Dual specificity tyrosine-phosphorylation-regulated kinase 1A (Homo sapiens) (UniProt Q13627); assay: Inhibition of DNA-tagged human DYRK1A assessed as percent of control at 50000 nM by qPCR analysis relative to control
[18] = target: Serine/threonine-protein kinase tousled-like 2 (Homo sapiens) (UniProt Q86UE8); assay: Inhibition of DNA-tagged human TLK2 assessed as percent of control at 50000 nM by qPCR analysis relative to control
Sequence of Serine/threonine-protein kinase tousled-like 2 (Homo sapiens) (Q86UE8 whole entry, looked up): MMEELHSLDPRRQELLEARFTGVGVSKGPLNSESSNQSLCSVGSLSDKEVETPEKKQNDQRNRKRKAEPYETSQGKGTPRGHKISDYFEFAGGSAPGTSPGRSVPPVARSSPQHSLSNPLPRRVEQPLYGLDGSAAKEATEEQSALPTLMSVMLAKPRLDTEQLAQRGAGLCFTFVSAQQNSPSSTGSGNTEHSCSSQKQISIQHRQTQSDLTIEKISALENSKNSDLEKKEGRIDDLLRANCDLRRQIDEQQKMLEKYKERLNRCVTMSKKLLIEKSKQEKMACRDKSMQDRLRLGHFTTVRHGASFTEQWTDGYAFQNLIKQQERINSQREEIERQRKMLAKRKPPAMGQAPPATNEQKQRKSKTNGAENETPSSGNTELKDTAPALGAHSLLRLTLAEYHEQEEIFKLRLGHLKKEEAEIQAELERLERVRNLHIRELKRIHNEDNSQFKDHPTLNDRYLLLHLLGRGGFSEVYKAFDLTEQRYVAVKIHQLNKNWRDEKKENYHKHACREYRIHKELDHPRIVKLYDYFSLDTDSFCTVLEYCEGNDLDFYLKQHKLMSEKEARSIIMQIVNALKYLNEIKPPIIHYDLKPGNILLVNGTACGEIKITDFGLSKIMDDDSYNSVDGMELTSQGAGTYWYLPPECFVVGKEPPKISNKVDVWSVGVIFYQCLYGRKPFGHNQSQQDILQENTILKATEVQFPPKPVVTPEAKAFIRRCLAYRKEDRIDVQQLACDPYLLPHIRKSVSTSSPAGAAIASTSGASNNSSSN

[19] = target: Activated CDC42 kinase 1 (Homo sapiens) (UniProt Q07912); assay: Inhibition of DNA-tagged human TNK2 assessed as percent of control at 50000 nM by qPCR analysis relative to control
[20] = target: Serine/threonine-protein kinase TAO1 (Homo sapiens) (UniProt Q7L7X3); assay: Inhibition of DNA-tagged human TAOK1 assessed as percent of control at 50000 nM by qPCR analysis relative to control
[21] = test system: Tyrosine-protein kinase ABL1 (Homo sapiens), P00519 [F317I]; assay: Inhibition of DNA-tagged phosphorylated human ABL1 F317I mutant assessed as percent of control at 50000 nM by qPCR analysis relative to control
[22] = test system: Tyrosine-protein kinase ABL1 (Homo sapiens), P00519 [T315I]; assay: Inhibition of DNA-tagged phosphorylated human ABL1 T315I mutant assessed as percent of control at 50000 nM by qPCR analysis relative to control
[23] = target: Serine/threonine-protein kinase BRSK1 (Homo sapiens) (UniProt Q8TDC3); assay: Inhibition of DNA-tagged human BRSK1 assessed as percent of control at 50000 nM by qPCR analysis relative to control
[24] = target: cAMP-dependent protein kinase catalytic subunit PRKX (Homo sapiens) (UniProt P51817); assay: Inhibition of DNA-tagged human PRKX assessed as percent of control at 50000 nM by qPCR analysis relative to control
[25] = target: Ephrin type-A receptor 3 (Homo sapiens) (UniProt P29320); assay: Inhibition of DNA-tagged human EPHA3 assessed as percent of control at 50000 nM by qPCR analysis relative to control
[26] = target: Mitogen-activated protein kinase kinase kinase 20 (Homo sapiens) (UniProt Q9NYL2); assay: Inhibition of DNA-tagged human ZAK assessed as percent of control at 50000 nM by qPCR analysis relative to control
[27] = target: Calcium/calmodulin-dependent protein kinase type 1G (Homo sapiens) (UniProt Q96NX5); assay: Inhibition of DNA-tagged human CAMK1G assessed as percent of control at 50000 nM by qPCR analysis relative to control
[28] = target: Serine/threonine-protein kinase 33 (Homo sapiens) (UniProt Q9BYT3); assay: Inhibition of DNA-tagged human STK33 assessed as percent of control at 50000 nM by qPCR analysis relative to control
[29] = test system: Serine/threonine-protein kinase B-raf (Homo sapiens), P15056 [V600E]; assay: Inhibition of DNA-tagged human BRAF V600E mutant assessed as percent of control at 50000 nM by qPCR analysis relative to control
Sequence of Serine/threonine-protein kinase B-raf (Homo sapiens), P15056 [V600E] (P15056 whole entry V600E): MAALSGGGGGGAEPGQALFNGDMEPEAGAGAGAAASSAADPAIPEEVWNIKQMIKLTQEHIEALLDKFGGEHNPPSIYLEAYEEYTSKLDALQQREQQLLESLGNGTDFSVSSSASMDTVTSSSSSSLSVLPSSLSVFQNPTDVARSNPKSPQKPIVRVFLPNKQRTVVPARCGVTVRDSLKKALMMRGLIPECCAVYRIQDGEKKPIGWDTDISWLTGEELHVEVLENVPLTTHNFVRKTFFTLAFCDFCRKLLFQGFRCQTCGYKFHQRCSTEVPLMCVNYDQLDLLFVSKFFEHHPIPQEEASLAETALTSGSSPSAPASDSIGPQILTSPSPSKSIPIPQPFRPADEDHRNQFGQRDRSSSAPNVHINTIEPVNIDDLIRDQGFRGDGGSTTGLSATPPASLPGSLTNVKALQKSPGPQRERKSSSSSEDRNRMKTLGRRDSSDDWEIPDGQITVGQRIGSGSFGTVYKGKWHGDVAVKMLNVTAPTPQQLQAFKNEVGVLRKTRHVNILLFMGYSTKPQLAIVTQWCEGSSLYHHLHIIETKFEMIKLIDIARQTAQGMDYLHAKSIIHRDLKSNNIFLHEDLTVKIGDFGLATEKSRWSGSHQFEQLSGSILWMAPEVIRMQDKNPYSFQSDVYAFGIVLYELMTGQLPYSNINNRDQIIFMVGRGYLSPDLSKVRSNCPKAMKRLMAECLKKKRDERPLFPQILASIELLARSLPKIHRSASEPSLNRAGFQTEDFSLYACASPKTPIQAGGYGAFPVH

## CN1C(=O)/C(=C2/C(=O)Nc3ccccc32)c2ccccc21
[1]
  Activity: 100%
[2]
  Activity: 100%
[3]
  Activity: 89%
[4]
  Activity: 81%
[5]
  Activity: 92%
[6]
  Activity: 100%
[7]
  Activity: 99%
[8]
  Activity: 98%
[9]
  Activity: 95%
[10]
  Activity: 100%
[11]
  Activity: 79%
[12]
  Activity: 98%
[13]
  Activity: 100%
[14]
  Activity: 100%
[15]
  Activity: 89%
[16]
  Activity: 95%
[17]
  Activity: 100%
[18]
  Activity: 88%
[19]
  Activity: 93%
[20]
  Activity: 87%
[21]
  Activity: 100%
[22]
  Activity: 98%
[23]
  Activity: 94%
[24]
  Activity: 100%
[25]
  Activity: 91%
[26]
  Activity: 80%
[27]
  Activity: 85%
[28]
  Activity: 100%
[29]
  Activity: 72%
